Format in all cases: cell-based, human
For assay [1], the system named is ICAM-1. The assay can be described thus: ICAM-1 surface protein expression on NHBE cells by flow cytometry. Particulars: 100 ng/ml, 48 hours, mean±SD (n=4). How it is done:
FIG. 4. Effect of ML-1 on ICAM-1 surface expression on NHBE cells by Flow Cytometry. NHBE cells were treated for 48 hours under following conditions: medium only, rIL-17 (100 ng/ml), purified His-tagged protein (Positope, 100 ng/ml), or ML-1 (100 ng/ml) as indicated. The mean fluorescence intensity of ICAM-1 surface expression was measured. The experiment was conducted four times. The results shown are from a representative experiment. * p<0.01.
To determine whether ML-1 is able to induce ICAM-1 expression on NHBE cells, surface expression of ICAM-1 on NHBE cells was measured and the effects of ML-1 and IL-17 were compared.
NHBE cells were treated with IL-17 (100 ng/ml), ML-1 (100 ng/ml), or a control His protein (Positope, 100 ng/ml). The cells were harvested following treatment with 0.1% trypsin-0.02% EDTA at 37° C. for 6 minutes and suspended in PBS containing 2% BSA and 0.02 % sodium azide. One million cells were incubated with a mouse anti-human ICAM-1 monoclonal antibody (R&D Systems, Minneapolis, Minn.) on ice for 30 minutes. […] After three additional washes in PBS, the cells were resuspended in PBS and immediately analyzed with a FACScan flow cytometer (Becton Dickinson, Mountain View, Calif.). […] Indices are expressed as mean±SD (n=4).
In general terms: In flow cytometry, cells or beads pass a laser one at a time.

Assay [2] concerns IL-8. The assay can be described thus: IL-8 expression in NHBE cells (RT-PCR and ELISA). Particulars: 100 ng/ml. The source says:
FIGS. 3A-3C. FIG. 3A, Expression of ML-1 protein in COS-7 cells. COS-7 cells were transfected with a gene construct containing full-length ML-1 sequence and a tag sequence encoding poly (His) peptide. ML-1-His fusion proteins were purified from supernatants of the transfected cells using a His affinity column, run on an 8-16% SDS-polyacrylamide gel under reducing conditions, and analyzed by Western Blot using anti-His monoclonal antibody. Lane 1 represents a mock-transfected sample. Lane 2 represents an ML-1-transfected sample. The location of a 19.5 kd marker is indicated. FIG. 3B, Effect of ML-1 on IL-8 gene expression. Human primary bronchial epithelial cells (NHBE cells) were treated with different stimuli. The cells were harvested 4 hours after stimulation, and total RNA was extracted and subjected to RT-PCR using IL-8 and G3PDH primers. Lane 1, medium only; lane 2, cells treated with rIL-17 (100 ng/ml); lane 3, cells treated with purified His-tagged protein (Positope, 100 ng/ml); lane 4, cells treated with ML-1 (100 ng/ml). FIG. 3C, Effect of ML-1 on IL-8 protein production. NHBE cells were treated with the same stimuli used in FIG. 3B, and the supernatants were harvested 48 hours after stimulation.
Primary human bronchial epithelial (NHBE) cells were purchased from Clonetics (San Diego, Calif.) and cultured according to the manufacturer's instructions. The cells were treated with IL-17 (100 ng/ml), ML-1 (100 ng/ml), or a control His-tagged protein (Positope, 100 ng/ml; Invitrogen, Carlsbad, Calif.). The affinity-purified control His protein was dissolved in the same buffer as ML-1. Total RNA was extracted using Rneasy (Qiagen, Chatsworth, Calif.) from 1×10^6 cells 4 hours after stimulation or exchange of media. The protocol for cDNA synthesis was that described above. For PCR, the sequences of PCR primers were based on the human IL-8 cDNA sequence. The sequences of PCR primers for IL-8 were: forward, 5′-TCTGCAGCTCTGTGTGAAG-3′ (SEQ ID NO:14) and reverse, 5′-TAATTTCTGTGTTGGCGCA-3′ (SEQ ID NO:15). The amplification reaction was performed for 23 cycles with denaturation at 94° C. for 45 seconds, annealing at 56° C. for 45 seconds, and extension at 72° C. for 45 seconds PCR products were detected by ethidium bromide staining. The expected size for IL-8 was 154 basepairs. IL-8 protein levels in the collected supernatants were determined with a commercially available ELISA kit (Biosource, Camarillo, Calif.) according to the manufacturer's instructions.
In general terms: An ELISA detects its analyte on a solid surface through an enzyme-linked reagent.

Assay [3] relates to IL-6. The assay can be described thus: IL-6 expression in PBECs (ELISA, RT-PCR). How it is done:
(§1) FIG. 5. Analysis of IL-6 (FIG. 5A) and IL-8 (FIG. 5B) expression in primary bronchial epithelial cells (PBECs) and human umbilical vein endothelial cells (HUVECs) stimulated by ML-1. The IL-6 and IL-8 protein release in the supernatant was determined by ELISA as described in Example 8. The results were expressed as mean+SD (n=6). *p<0.05 was considered significant vs control.
(§2) FIG. 7A-7D. Effect of PD98059 on IL-6 (FIG. 7A) and IL-8 (FIG. 7B) protein production in PBECs and HUVECs. The cells were preincubated with varying concentrations of PD98059, SB202190, or DMSO vehicle control for 1 hour, followed by stimulation with ML-1 (100 ng/ml) for 24 hours. The results are expressed as the mean+SD (n=6). *P<0.05 when compared to cultures without the addition of PD98059. FIGS. 7C and 7D. Semi-quantitative analysis of gene expression for IL-6 (FIG. 7C) and IL-8 (FIG. 7D) by RT-PCR. The cells were preincubated as described above and treated with ML-1 for 4 hours. RT-PCR was performed as described in Example 8. The results shown are representative of three separate experiments.
(§3) Primary bronchial epithelial cells (PBECs) were purchased from Clonetics (San Diego, Calif.) and cultured in bronchial epithelial basal medium (Clonetics) containing 0.5 ng/ml human recombinant epidermal growth factor (EGF), 52 mg/ml bovine pituitary extract, 0.1 mg/ml retinoic acid, 0.5 mg/ml hydrocortisone, 5 mg/ml insulin, 10 mg/ml transferrin, 0.5 mg/ml epinephrine, 6.5 ng/ml triiodothyronine, […] gentamicin, and 50 pg/ml amphotericin-B (Clonetics). […]
(§4) The amplification reaction was performed for 23 cycles with denaturation at 94° C. for 45 seconds, annealing at 56° C. for 45 seconds, and extension at 72° C. for 45 seconds. PCR products were detected by ethidium bromide staining and normalized by the intensity of an amplified housekeeping gene, G3PDH (see above). […] IL-6 and IL-8 protein levels in the collected supernatants were determined with a commercially available ELISA kit (Biosource, Camarillo, Calif.) according to the manufacturer's instructions.

Assay [4] relates to IL-8. Nature of the assay: IL-8 expression in PBECs (ELISA, RT-PCR). How it is done:
as §1, §2, §3, §4

The test system of assay [5] is IL-6. The assay can be described thus: IL-6 expression in HUVECs (ELISA, RT-PCR). How it is done: as §1, §2
(§5) Human umbilical vein endothelial cells (HUVECs) were obtained from Clonetics and cultured in endothelial cell growth media (EGM; Clonetics) containing 12 μg/ml bovine brain extract, 10 ng/ml EGF, 1 μg/ml hydrocortisone, 50 μg/ml gentimicin, 50 ng/ml amphotericin B, and 5% FBS amphotericin-B (Clonetics).
(§6) PBECs and HUVECs were treated with ML-1 100 ng/ml of ML-1 for various time points. Total RNA was extracted using RNeasy (Qiagen) from 1×10^6 cells 4 hours after stimulation or exchange of media. […]
as §4

For assay [6], the system named is IL-8. Nature of the assay: IL-8 expression in HUVECs (ELISA, RT-PCR). How it is done:
as §1, §2, §5, §6, §4

The subject of assay [7] is ERK1/2. Nature of the assay: Western blotting of ERK1/2 phosphorylation in PBECs. Particulars: pre-incubation with 10 μM for 1 hour, then ML-1 for 20 minutes. How it is done:
(§7) FIGS. 6A-6D. Kinetic activation of ERK1/2 by ML-1 in PBECs (FIG. 6A) and HUVECs (FIG. 6B). The cells were incubated with or without ML-1 (100 ng/ml) for different time points as indicated. Western blotting analysis was performed by using antibodies against different MAP kinases as described in Example 8. FIGS. 6C and 6D. Effect of PD98059 on ML-1-induced phosphorylation of ERK1/2 in PBECs (FIG. 6C) and HUVECs (FIG. 6D). The cells were preincubated with PD98059 ([…]) or DMSO vehicle control for 1 hour, followed by stimulation of PBECs and HUVECs with medium or ML-1 for 20 minutes or 10 minutes, respectively. The results shown are representative of three separate experiments.
(§8) For analysis of activation of MAP kinases, PBECs were treated with IL-17 (100 ng/ml) for various time periods, with or without the MEK 1/2 inhibitor PD98059 ([…]; Calbiochem, La Jolla, Calif.) (15), the p38 inhibitor SB202190 (0.5-10 μM; ref. 16), or a vehicle control, DMSO (Me2SO) for 1 hour. […] Following the treatment, the cells were washed with ice-cold PBS. Cell pellets were immediately lysed in cold lysis buffer [20 mM Tris (pH 7.4), 4 mM EDTA, 2 mM EGTA, 1 mM PMSF, […] aprotinin, 200 mg/ml leupeptin, 50 mM NaF, 5 mM NaRP2O7, 1 mM Na3VO4, and 1% Nonidet P40; all purchased from Sigma]. Extracts (1×10^6 cell equivalents/lane) were suspended with an equal volume of 2× loading buffer [0.1 M Tris-HCl (pH 6.8)], 4% SDS, 0.005% bromophenol blue, and 20% glycerol) containing 2-ME (0.7 M) and subjected to 4-20% Tris-glycine gel electrophoresis (NOVEX, San Diego, Calif.). Gels were then transferred to PVDF membranes (BIO-RAD, Hercules, Calif.) with a Trans Blot apparatus (NOVEX). The membranes were immersed overnight in This-buffered saline/Tween 20 containing 5% nonfat dry skim milk (Carnation, Los Angeles, Calif.).
(§9) Immunoreactive proteins were detected using antibodies against various kinases and phosphorylated kinases. […] Western blotting detection reagents (Amersham) and Hyper ECL luminescence detection film (Amersham) were used. […]
Background: Immunoblotting shows a protein as a band on a membrane.

The subject of assay [8] is ERK1/2. The assay can be described thus: Western blotting of ERK1/2 phosphorylation in HUVECs. The note with it: pre-incubation with 10 μM for 1 hour, then ML-1 for 10 minutes. How it is done:
as §7, §8, §9

Setting [9] is: 1 hour preincubation, varying concentrations, ML-1 100 ng/ml 24 hours.
Where [10] appears, read: preincubation, ML-1 for 4 hours, semi-quantitative RT-PCR.

The record followed here is US20060073572A1, “Cytokine structurally related to IL-17” (The Johns Hopkins University, priority 2001, published 2006).

Entries after “also recorded” stand apart in the source; their conditions may differ.

In the case of “IL-17: human IL-17, T-cell derived homodimeric cytokine, used as comparator”, the “ICAM-1 surface expression, mean fluorescence intensity (MFI)” value in assay [1] was 10.07±1.22. Further, the IL-8 protein expression entry in assay [2] (ELISA of supernatants, 48 hours) is on record as “enhanced”. Also, in assay [2] (RT-PCR), the IL-8 transcript expression entry is on record as “enhanced”.

Consider `COc1cccc(-c2cc(=O)c3ccccc3o2)c1N` [PD98059], for which the “effect on ML-1-induced IL-6 protein production” value in assay [3] (setting [9]) and in assay [5] (setting [9]) was “inhibited; also recorded: not completely inhibited” throughout. For the same compound, the “effect on ML-1-induced IL-6 gene expression” value in assay [3] (setting [10]) and in assay [5] (setting [10]) was “Decreased levels” throughout. The “effect on ML-1-induced IL-8 protein production” value in assay [4] (setting [9]) and in assay [6] (setting [9]) was “inhibited; also recorded: not completely inhibited” in each case. Also, the “effect on ML-1-induced IL-8 gene expression” value in assay [4] (setting [10]) and in assay [6] (setting [10]) was “Decreased levels” in each case. Also, the “effect on ML-1-induced activation of ERK1/2” value in assay [7] and in assay [8] was “diminished” each time.
